Reference: patent US12201611B2, “Composition comprising high purity pyrrole derivative and method for preparation thereof” (Zydus Lifesciences Limited, priority 2020, dated 2025)

How the values were obtained:
[1] = Stability data at 40° C. ± 2° C. and 75% ± 5% relative humidity (six months); type: physicochemical; conditions: 75% ± 5% RH
Experimental: (§1) As used herein, the term “prolonged storage” refers to storage for up to 6 months and different stability conditions refers to storage at 25° C. temperature and 60% relative humidity; or at 40° C. temperature and 75% relative humidity.
(§2) In another general aspect, there is provided a stable composition of Saroglitazar magnesium, wherein the composition contains Saroglitazar magnesium having purity of about 99.0% or more, by weight, by area percentage of HPLC, and one or more of the aldehyde compound of Formula (II), the diketo oxirane compound of Formula (III), the hydroxy methyl compound of Formula (IV), or the dimer compound of Formula (V) in an amount of about 0.15%, or less, by weight, relative to saroglitazar magnesium, on prolonged storage and under different stability conditions i.e. 40° C.±2° C. temperature and 75%±5% relative humidity and at 25° C.±2° C. temperature and 60±5% relative humidity as outlined by the six months' stability data as shown in Table-2 and 3.
(§3) The purity of the samples of Saroglitazar or salts thereof including magnesium and SMBA salt is measured by area percentage of HPLC using following conditions:
(§4) Equipment: Shimadzu LC2020CHT HPLC system or equivalent
(§5) Column: YMC-Pack Pro C18 ([…]×4.0 mm, 3 μm)
(§6) Detector: UV-VIS detector or PDA detector
(§7) Column Oven Temp.: 25° C.

[2] = Stability data at 25° C. ± 2° C. and 60% ± 5% relative humidity (six months); type: physicochemical; conditions: 60% ± 5% RH
Experimental: as §1, §2, §3, §4, §5, §6, §7

- LOD ([1]; 1 month): 0.48 % w/w
- Related Substance by HPLC: Formula II ([1]; 1 month): 0.01 % w/w
- Related Substance by HPLC: Formula V ([1]; 1 month): 0.12 % w/w
- Related Substance by HPLC: Total impurities ([1]; 1 month): 0.12 % w/w
- LOD ([1]; 2 month): 0.44 % w/w
- Related Substance by HPLC: Formula II ([1]; 2 month): 0.01 % w/w
- Related Substance by HPLC: Formula V ([1]; 2 month): 0.12 % w/w
- Related Substance by HPLC: Total impurities ([1]; 2 month): 0.12 % w/w
- LOD ([1]; 3 months): 0.30 % w/w
- Related Substance by HPLC: Formula II ([1]; 3 months): 0.01 % w/w
- Related Substance by HPLC: Formula V ([1]; 3 months): 0.11 % w/w
- Related Substance by HPLC: Total impurities ([1]; 3 months): 0.12 % w/w
- LOD ([1]; 6 months): 0.24 % w/w
- Related Substance by HPLC: Formula V ([1]; 6 months): 0.12 % w/w
- Related Substance by HPLC: Total impurities ([1]; 6 months): 0.12 % w/w
- LOD ([1]; Initial): 0.51 % w/w
- Related Substance by HPLC: Formula II ([1]; Initial): 0.01 % w/w
- Related Substance by HPLC: Formula V ([1]; Initial): 0.11 % w/w
- Related Substance by HPLC: Total impurities ([1]; Initial): 0.18 % w/w
- LOD ([2]; 1 month): 0.43 % w/w
- Related Substance by HPLC: Formula II ([2]; 1 month): 0.01 % w/w
- Related Substance by HPLC: Formula V ([2]; 1 month): 0.12 % w/w
- Related Substance by HPLC: Total impurities ([2]; 1 month): 0.12 % w/w
- LOD ([2]; 2 month): 0.64 % w/w
- Related Substance by HPLC: Formula II ([2]; 2 month): 0.01 % w/w
- Related Substance by HPLC: Formula V ([2]; 2 month): 0.12 % w/w
- Related Substance by HPLC: Total impurities ([2]; 2 month): 0.12 % w/w
- LOD ([2]; 3 months): 0.27 % w/w
- Related Substance by HPLC: Formula II ([2]; 3 months): 0.01 % w/w
- Related Substance by HPLC: Formula V ([2]; 3 months): 0.12 % w/w
- Related Substance by HPLC: Total impurities ([2]; 3 months): 0.12 % w/w
- LOD ([2]; 6 months): 0.35 % w/w
- Related Substance by HPLC: Formula V ([2]; 6 months): 0.12 % w/w
- Related Substance by HPLC: Total impurities ([2]; 6 months): 0.12 % w/w
- LOD ([2]; Initial): 0.51 % w/w
- Related Substance by HPLC: Formula II ([2]; Initial): 0.01 % w/w
- Related Substance by HPLC: Formula V ([2]; Initial): 0.11 % w/w
- Related Substance by HPLC: Total impurities ([2]; Initial): 0.18 % w/w
Substance: 2-ethoxy-3-(4-(2-(2-methyl-5-(4-(methylthio)phenyl)-1H-pyrrol-1-yl)ethoxy)phenyl)propanoate [Saroglitazar magnesium]
